Patent publication US5942522A, “Antiviral compounds and antihypertensive compounds” (Schering Corporation, priority 1997, dated 1999)
In brackets after ≈: the same amount, converted by molar mass. Like-named read-outs stand apart in the source and are kept apart here.

What was measured:
HSV-2 (strain MS) = assay: HSV-β-Gal assay: transient expression of beta galactosidase in transfected HeLa cells superinfected with HSV-2; format: cell-based
Description: (§1) HeLa and Vero cell cultures were maintained in Eagles Minimal Essential Medium (EMEM) which was supplemented with glutamine, penicillin, streptomycin and 10% fetal calf serum (10% EMEM). Stock cultures of HSV-2 (strain MS available from ATCC VR-540) were grown in and harvested from Vero cells. Viral stocks were titered in Vero cells according to established procedures.
Plasmid pON 245^ori- contains the promoter of the HSV-1 thymidine kinase (tk) gene located immediately 5'of the E. coli lac Z gene. In this arrangement, the tk promoter controls transcription from the bacterial gene in transient expression assays. Additionally, an SV40 polyadenylation signal is present at the 3' end of the lac Z gene to allow for the efficient translation of the mRNA in eucaryotic cells. The expression of beta galactosidase in a transient assay using pON 245^ori- is dependent upon superinfection of the transfected cells with HSV. […] For example see U.S. application Ser. No. 07/435,491 filed Sep. 5, 1989, the disclosure of which is incorporated herein by reference thereto.
HeLa cells were seeded into 96 well microtiter plates and allowed to grow to 80% confluency (approximately 35000 cells/well). One half microgram of plasmid pON 245^ori- DNA was introduced into the cells of each well by the […] precipitation technique (Grahman and Van der Eb, 1973). Four to six hours later, the cells were rinsed with hank's Balanced Salt Solution (HBSS), overlaid with 10% EMEM and incubated at 37° C. At 24 hours post-transfection, cells were rinsed, overlaid with 10% EMEM again and re-incubated at 37° C. At 48 hours post-transfection, cells were rinsed and overlaid with either EMEM containing 2% fetal calf serum (2% EMEM), 2% EMEM containing HSV-2 (strain MS, Multiplicity of Infection [moi]=5 pfu/cell) or 2% EMEM containing HSV-2 and the appropriate concentration of Schering compound to be tested. Twenty-four hours later, the cells were harvested and assayed for beta galactosidase activity as described below.
All determinations of beta galactosidase activity were performed in 96 well microtiter plates. The intracellular level of beta galactosidase activity in each well was determined from cell lysates of the monolayer cultures. Aliquots were assayed by incubation in the presence of beta galactosidase substrate, 4-methylumbelliferyl-β-D-galactoside (MUG, 125 ug/ml, Sigma), for 2 hours. The generation of fluorescent product was quantified on a Microfluor microfluorimeter (Dynatech) after addition of 0.1M glycine, pH 10.3 (Spaete and Mocarski, 1985). The inhibitory activity of a compound was plotted versus the concentration and an IC50 value (the concentration of compound required to reduce beta glactosidase expression by 50%) was obtained for each compound tested.

[1] = Compound toxicity assay: inhibition of HeLa cell translation (3H-leucine incorporation); format: cell-based; settings: human, HeLa cells
Description: as §1
HeLa cells were treated with inhibitory compound for 24 hours, after which levels of translational activity were assayed.
For assay of translational activity, HeLa cultures were grown to 80% confluency in 96 well microtiter plates, treated with appropriate concentrations of compound in 2% EMEM during an overnight incubation at 37° C., then rinsed with HBSS and overlaid with […] of 2% EMEM containing 8 uCi of tritiated leucine (^3 H-LEU, […], Amersham Corp., Arlington Heights, Ill.). After a 1 hour incubation at 36.5°C., the cells were rinsed twice with phosphate buffered saline (PBS) and lysed in 400 ul/well of 1×PBS, 0.5% sodium dodecyl sulphate (SDS). After a 10 min incubation at 36.5° C., the contents of the well were transferred to a well in a Millititer HA microfiltration plate (Millipore Corp., Bedford, Mass.). The TCA insoluble proteins were precipitated onto the filter disc by a 10 min fixation with 5% TCA, followed by filtration under vacuum and three 10 minute rinses with 95% ethanol. The filters were dried at room temperature, cut from the milltitier plate and transferred to scintillation vials. TCA precipitable counts were assayed in 5 ml of Scintisol (Isolab, Akron, Ohio). The inhibitory activity of a compound was plotted versus the concentration and an IC50 value (that concentration of the compound required to decrease cellular translational activity by 50%) was derived for each compound.

[2] = Human alphaherpesvirus 2, Table II, HeLa cells, HSV-2 strain MS, 24 h, read-out: Anti-HSV activity, HSV-β-GAL assay IC50
[3] = Human alphaherpesvirus 2, Table II^1, HeLa cells, HSV-2 strain MS, 24 h, read-out: Anti-HSV activity HSV-β-Gal assay IC50
[4] = Human alphaherpesvirus 2, HeLa, read-out: HSV: antiHSV activity, HSVβ-Gal Assay, IC50
[5] = Table II, read-out: Cytotoxicity 3H-LEU assay IC50
[6] = Human alphaherpesvirus 2, HeLa, 24 h, read-out: Anti-HSV activity, HSV-β-GAL assay IC50

Compound	IC50 (HSV-2 (strain MS); [2]) [µg/mL]	CC50 at 24 h [1, 5] [µg/mL]	also measured
CON=Cc1c(OC)c2ccccc2n(Cc2ccccc2)c1=O [Compound 20, 1-Benzyl-3-Methoxyiminomethyl-4-Methoxy-2(1H)-Quinolinone]	7 (≈ 21.7 µM)	–	–
Cc1c(OC(=O)c2ccncc2)ccc2c(N)cc(=O)oc12 [Compound 67, 4-Amino-7-Isonicotinoxy-8-Methyl-Benzopyran-2-one]	–	–	IC50 (HSV-2 (strain MS); [3]): 14 µg/mL (≈ 47.3 µM)
CCOC(=O)c1c(OC)c2ccccc2n(C)c1=O [Compound 107]	–	–	IC50 (HSV-2 (strain MS); [4]): > 25 µg/mL
CCCCCCn1c(=O)c(C2OCCO2)c(OC)c2cc(C)ccc21 [Compound 23, 1-Hexyl-3-[2-(1,3-dioxolano)]-4-methoxy-6-methyl-2(1H)-Quinolinone]	9 (≈ 26.1 µM)	> 100	–
CC(=O)Oc1c(Sc2ccccc2)c(=O)n(C)c2ccc(F)cc12 [Compound 102]	–	–	IC50 (HSV-2 (strain MS); [4]): 21 µg/mL (≈ 61.2 µM)
CCCCCCn1c(=O)c(C2NCCS2)c(OC)c2cc(C)ccc21 (stereo not shown) [Compound 8, 1-Hexyl-3-(2-thiazolidinyl)-4-methoxy-6-methyl-2(1H)-Quinolinone]	–	3 (≈ 8.32 µM)	IC50 (HSV-2 (strain MS); [6]): < 3 µg/mL
CCCCCCn1c(=O)c(CBr)c(OC)c2ccccc21 [Compound 15, 1-Hexyl-3-Bromomethyl-4-Methoxy-2(1H)-Quinolinone]	5 (≈ 14.2 µM)	25 (≈ 71 µM)	–
Cc1c(OC(=O)c2cccs2)ccc2c(N)cc(=O)oc12 [Compound 66, 4-Amino-7-(Thiophene-2-carbonyloxy)-8-Methyl-Benzopyran-2-one]	–	–	IC50 (HSV-2 (strain MS); [3]): > 25 µg/mL
CCCCCCn1c(=O)c(C(=O)O)c(OC)c2cc(C)ccc21 [Compound 105]	–	–	IC50 (HSV-2 (strain MS); [4]): > 25 µg/mL
COc1c(CCO)c(=O)n(C)c2ccccc12 [Compound 106]	–	–	IC50 (HSV-2 (strain MS); [4]): > 25 µg/mL
Cc1c(OC(=O)c2ccco2)ccc2c(N)cc(=O)oc12 [Compound 65, 4-Amino-7-(2-Furoyloxy)-8-Methyl-Benzopyran-2-one]	–	–	IC50 (HSV-2 (strain MS); [3]): > 25 µg/mL
CCCCCCn1c(=O)c(Cn2ccnc2)c(OC)c2cc(C)ccc21 [Compound 11, 1-Hexyl-3-(1H-imidazol-1-ylmethyl)-4-methoxy-6-methyl-2(1H)-quinolinone]	4.5 (≈ 12.7 µM)	17 (≈ 48.1 µM)	–
CCCCCCn1c(=O)c(C(=O)OCC)c(OC)c2cc(C)ccc21 [Compound 19, 1-hexyl-3-ethoxycarbonyl-4-methoxy-6-methyl-2(1H)-quinolinone]	7 (≈ 20.3 µM)	–	–
CCCCCCn1c(=O)c(C=NOC)c(OC)c2cc(C)ccc21 [Compound 26, 1-Hexyl-3-Methoximinomethyl-4-Methoxy-6-Methyl-2(1H)-Quinolinone]	7 (≈ 21.2 µM)	27 (≈ 81.7 µM)	–
Cc1cc2c(OCCN(C)C)c(SCO)c(=O)n(Cc3ccc(O[Si](C)(C)C(C)(C)C)cc3)c2cc1C [Compound 5]	3 (≈ 5.53 µM)	15 (≈ 27.6 µM)	–
CCCCCCn1c(=O)c(C=NOC)c(OC)c2ccccc21 [Compound 3, 1-Hexyl-3-Methoximinomethyl-4-Methoxy-2(1H)-Quinolinone]	2.5 (≈ 7.9 µM)	12.6 (≈ 39.8 µM)	–
CCCCCCn1c(=O)c(Cn2cnnn2)c(OC)c2cc(C)ccc21 [Compound 14, 1-Hexyl-3-(1-Tetrazolylmethyl)-4-Methoxy-6-Methyl-2(1H)-Quinolinone]	5 (≈ 14.1 µM)	> 100	–
CCCCCCn1c(=O)c(Cn2cncn2)c(OC)c2cc(C)ccc21 [Compound 10, 1-Hexyl-3-(1,2,4-Triazol-1-ylmethyl)-4-Methoxy-6-Methyl-2(1H)-Quinolinone]	4 (≈ 11.3 µM)	> 100	–

Compound	IC50 (HSV-2 (strain MS); [2]) [µg/mL]	CC50 at 24 h [1, 5] [µg/mL]	also measured
4-Amino-7-Acetyloxy-8-Methyl-Benzopyran-2-one [Compound 68]	–	–	Anti-HSV activity HSV-β-Gal assay IC50 (HSV-2 (strain MS); Table II^1, HeLa cells, HSV-2 strain MS, 24 h): 30.0 µg/mL
COc1c(SC)c(=O)n(Cc2ccc(O[Si](C)(C)C(C)(C)C)cc2)c2cc(C)c(C)cc12 [Compound 1]	1.5 (≈ 3.19 µM)	1.8 (≈ 3.83 µM)	–
CCCCCCn1c(=O)c(C2NCCS2)c(OC)c2ccccc21 (stereo not shown) [Compound 2, 1-Hexyl-3-(2-thiazolidinyl)-4-methoxy-2(1H)-Quinolinone]	–	32 (≈ 92.4 µM)	IC50 (HSV-2 (strain MS); [6]): 2 µg/mL (≈ 5.77 µM)
COc1c(SC)c(=O)n(Cc2ccc(O)cc2)c2cc(C)c(C)cc12 [Compound 25]	10 (≈ 28.1 µM)	–	–
CCCCCCn1c(=O)c(C2OCCO2)c(OC)c2ccccc21 [Compound 24]	10 (≈ 30.2 µM)	–	–
CCCCCCn1c(=O)c(Cn2ncnn2)c(OC)c2cc(C)ccc21 [Compound 13, 1-hexyl-3-(2-tetrazolylmethyl)-4-methoxy-6-methyl-2(1H)-quinolinone]	5 (≈ 14.1 µM)	17 (≈ 47.8 µM)	–
CCCCCCn1c(=O)c(C=NO)c(OC)c2cc(C)ccc21 [Compound 4, 1-Hexyl-3-Oximinomethyl-4-Methoxy-6-Methyl-2(1H )-Quinolinone]	–	100 (≈ 316 µM)	IC50 (HSV-2 (strain MS); [6]): 3 µg/mL (≈ 9.48 µM)
CCCCCCn1c(=O)c(C=NO)c(OC)c2ccccc21 [Compound 17, 1-Hexyl-3-Hydroximinomethyl-4-Methoxy-2(1H)-Quinolinone]	6 (≈ 19.8 µM)	25 (≈ 82.7 µM)	–
CCCCCCn1c(=O)c(Cn2cnnn2)c(OC)c2ccccc21 [Compound 18, 1-Hexyl-3-(1-tetrazolymethyl)-4-methoxy-2(1H)-quinolinone]	6 (≈ 17.6 µM)	18 (≈ 52.7 µM)	–
CCCCCCn1c(=O)c(Cn2cncn2)c(OC)c2ccccc21 [Compound 16, 1-Hexyl-3(1,2,4-Triazol-1-ylmethyl)-4-Methoxy-2(1H)-Quinolinone]	5 (≈ 14.7 µM)	18 (≈ 52.9 µM)	–
CCCCCCn1c(=O)c(Cn2cnnc2)c(OC)c2cc(C)ccc21 [Compound 12, 1-hexyl-3-(1,2,4-triazol-4-ylmethyl)-4-methoxy-6-methyl-2(1H)-quinolinone]	4.5 (≈ 12.7 µM)	32 (≈ 90.3 µM)	–
C=CCOC(=O)c1c(OC)c2cc(C)ccc2n(CCCCCC)c1=O [Compound 104]	–	–	IC50 (HSV-2 (strain MS); [4]): > 25 µg/mL
CCCCCCn1c(=O)c(C(=O)OCC)c(OC(=O)c2cccn2C)c2cc(C)ccc21 [Compound 103]	–	–	IC50 (HSV-2 (strain MS); [4]): 25 µg/mL (≈ 57 µM)
Cc1c(OC(=O)[C@H](C)NC(=O)OC(C)(C)C)ccc2c(N)cc(=O)oc12 [Compound 71, 4-Amino-7-(BOC-L-Alanyloxy)-8-Methyl-Benzopyran-2-one]	–	–	IC50 (HSV-2 (strain MS); [3]): > 25 µg/mL
COc1c(Sc2ccccc2)c(=O)n(C)c2ccc(F)cc12 [Compound 22]	8 (≈ 25.4 µM)	25 (≈ 79.3 µM)	–
CCCCCCn1c(=O)c(Cn2ncnn2)c(OC)c2ccccc21 [Compound 6, 1-hexyl-3-(2-tetrazolylmethyl)-4-methoxy-2(1H)-quinolinone]	–	7 (≈ 20.5 µM)	IC50 (HSV-2 (strain MS); [6]): 3 µg/mL (≈ 8.79 µM)
CCOC(=O)c1c(OC(=O)c2ccc[nH]2)c2ccccc2n(C)c1=O [Compound 101]	–	–	IC50 (HSV-2 (strain MS); [4]): 20 µg/mL (≈ 58.8 µM); CC50 at 24 h ([1]; Table IV compound, read-out: Cytotoxicity 3H-Leu Assay IC50): 40 µg/mL (≈ 118 µM)
